Assay [1] concerns APC-resistant Haemophilus influenza. The assay can be described thus: MIC90, agar plate dilution method (NCCLS), Table 2. Conditions: for MIC90 Range: APC-resistant Haemophilus influenza., 10 isolates; for MIC90: Haemophilus. In kind it is cell-based. How it is done:
(§1) The MIC90 values for this test were determined by the agar plate dilution method according to the National Committee for Clinical Laboratory Standards (“NCCLS”).

Assay [2] deals with GM-resistant P. aeruginosa. The assay can be described thus: MIC90, agar plate dilution method (NCCLS), Table 2. It counts as cell-based. Conditions: 10 isolates; for MIC90: Pseudomonas aeruginosa. As for the experimental part: as §1
The next assay has as its system GM-resistant S. aureus. The assay can be described thus: MIC90, agar plate dilution method (NCCLS), Table 2. It counts as cell-based. To be noted: 10 isolates; for MIC90: Staphylococcus aureus. As for the experimental part:
as §1

Assay [3] has as its system OFLX-resistant Enterobacteriaceae. The assay can be described thus: MIC90, agar plate dilution method (NCCLS), Table 2. It counts as cell-based. As for the experimental part: as §1
For a further assay, the system named is OFLX-resistant S. aureus. The assay can be described thus: MIC90, agar plate dilution method (NCCLS), Table 2. To be noted: 10 isolates; for MIC90: Staphylococcus aureus. It counts as cell-based. How it is done: as §1
The test system of assay [4] is PCG-resistant S. pneumoniae. The assay can be described thus: MIC90, agar plate dilution method (NCCLS), Table 2. In kind it is cell-based. Conditions: 10 isolates; for MIC90: Streptococcus pneumoniae. As for the experimental part: as §1
Assay [5] concerns S. aureus Clinical Isolates. The assay can be described thus: In vitro activity against clinical isolates, sixth test, Table 7. Conditions: Staphylococcus aureus, 49 isolates. In kind it is cell-based.
Assay [6] deals with S. pneumoniae Clinical Isolates. The description is as above. In kind it is cell-based. Conditions: 78 isolates.
In assay [7] the test system is Methicillin-Resistant S. aureus Isolates. The assay can be described thus: In vitro anti-bacterial activity, fourth test, Table 5. In kind it is cell-based, Staphylococcus aureus. Conditions: Staphylococcus aureus, read-out: MIC90. How it is done:
In a fourth test, the anti-bacterial activity of the compound having Formula IV was tested against some methicillin-resistant S. aureus bacteria strains and compared to the anti-bacterial activity of three commercially available antibiotics: nadifloxacin (“NDFX”), ofloxacin (“OFLX”), and sparfloxacin (“SPFX”).

Assay [8] concerns methicillin-resistant S. aureus. The assay can be described thus: MIC90, Japanese Society of Chemotherapy guidelines (1993), Table 3. In kind it is cell-based. To be noted: Staphylococcus aureus, read-out: MIC90. How it is done: (§2) In a second test, compounds having Formulae IV and V, their racemic mixture, and OFLX were tested in vitro against S. aureus strains that are resistant to methicillin or penicillin. The test was conducted according to the guidelines of the Japanese Society of Chemotherapy (1993).

The test system of assay [9] is penicillin-resistant S. aureus. The description is as above. In kind it is cell-based. To be noted: Staphylococcus aureus, read-out: MIC90. As for the experimental part:
as §2

The mark [10] stands for this setting: ATCC33591, Staphylococcus aureus (ATCC 33591).
[11] abbreviates: ATCC33592, Staphylococcus aureus (ATCC 33592).
Where [12] appears, read: ATCC33593, Staphylococcus aureus (ATCC 33593).
The mark [13] stands for this setting: Staphylococcus aureus (No. 395).
Setting [14] is: Staphylococcus aureus (No. 415).
Where [15] appears, read: Staphylococcus aureus (No. 419).
Where [16] appears, read: Staphylococcus aureus (No. 420).
Where [17] appears, read: Staphylococcus aureus (No. 421).

≈ marks a conversion by molar mass, not a printed value. Where two headings read alike, the source gives them in different places.

This is an account of results in patent US8937062B2, “Compositions and methods for treating, reducing, ameliorating, or preventing infections caused by antibacterial drug-resistant bacteria” (Bausch & Lomb Incorporated, priority 2007, dated 2015).

On to `O=C(O)c1cn(C2CC2)c2cc(N3CCNCC3)c(F)cc2c1=O` [CPLX, ciprofloxacin], for which the “MIC90 Range” value in assay [1] is “≦0.06 μg/ml”; in assay [2], 0.13 to 32 µg/mL; in assay [3] (OFLX-resistant Enterobacteriaceae, 10 isolates), 4 to 32 µg/mL; in [4], 0.5 to 2 µg/mL. Besides, the MIC90 is ≤ 0.06 µg/mL in assay [1] (read-out: MIC90 Geometric Mean); ≤ 0.06 µg/mL in [1] (read-out: MIC90 Value); 1.87 µg/mL (≈ 5.64 µM) in assay [2] (read-out: MIC90 Geometric Mean); 26 µg/mL (≈ 78.5 µM) in the assay on GM-resistant S. aureus (read-out: MIC90 Geometric Mean); 10.6 µg/mL (≈ 32 µM) in assay [3] (read-out: MIC90 Geometric Mean); 147 µg/mL (≈ 444 µM) with OFLX-resistant S. aureus (read-out: MIC90 Geometric Mean).
In the case of `C[C@H]1COc2c(N3CCN(C)CC3)c(F)cc3c(=O)c(C(=O)O)cn1c23` [LVFX, levofloxacin], the MIC90 was 4 µg/mL (≈ 11.1 µM) in assay [5] and 1 µg/mL (≈ 2.77 µM) in assay [6] (Streptococcus pneumoniae). In addition, the “MIC90 Range” value in assay [6] is 0.5 to 2 µg/mL.
Turning to `CC1CCc2c(N3CCC(O)CC3)c(F)cc3c(=O)c(C(=O)O)cn1c23` (centres unmarked) [NDFX, nadifloxacin], the MIC90 in [7] (setting [10]) was 0.006 µg/mL (≈ 0.0166 µM); in [7] (setting [11]) it was 0.05 µg/mL (≈ 0.139 µM); in assay [7] (setting [12]) it was 0.024 µg/mL (≈ 0.0666 µM); in assay [7] (setting [13]), 0.024 µg/mL (≈ 0.0666 µM); in assay [7] (setting [14]), 0.1 µg/mL (≈ 0.277 µM); in assay [7] (setting [15]), 0.39 µg/mL (≈ 1.08 µM). For the same molecule, the MIC90 in assay [7] (setting [16]) and in assay [7] (setting [17]) was 0.78 µg/mL (≈ 2.16 µM) in each case.
With `C[C@@H]1CN(c2c(F)c(N)c3c(=O)c(C(=O)O)cn(C4CC4)c3c2F)C[C@H](C)N1` [SPFX, sparfloxacin], the MIC90 in assay [7] (setting [10]) stood at 0.024 µg/mL (≈ 0.0612 µM); in [7] (setting [11]), 0.1 µg/mL (≈ 0.255 µM); in assay [7] (setting [12]) it was 0.024 µg/mL (≈ 0.0612 µM); in [7] (setting [13]), 0.05 µg/mL (≈ 0.127 µM); in assay [7] (setting [14]), 0.2 µg/mL (≈ 0.51 µM); in assay [7] (setting [15]), 1.56 µg/mL (≈ 3.98 µM). Also, the values for the MIC90 in assay [7] (setting [16]) and in assay [7] (setting [17]) were 0.78 µg/mL (≈ 1.99 µM) and 0.39 µg/mL (≈ 0.994 µM), respectively.
For `O=C1CCN(c2c(F)cc3c(=O)c(C(=O)O)cn(C4CC4)c3c2Cl)CCN1` [VI], the “MIC90 Range” value is “≦0.06 μg/ml” in [1]; 0.5 to 64 µg/mL in assay [2]; “≦0.006-4 μg/ml” in the assay on GM-resistant S. aureus; 0.25 to 8 µg/mL in the assay with OFLX-resistant S. aureus; 0.13 to 0.25 µg/mL in assay [4]. Also, the MIC90 in assay [1] (read-out: MIC90 Geometric Mean) was ≤ 0.06 µg/mL; in assay [1] (read-out: MIC90 Value), ≤ 0.06 µg/mL; in [2] (read-out: MIC90 Geometric Mean) it was 6.96 µg/mL (≈ 17.7 µM); in [2] (read-out: MIC90 Value) it was 32 µg/mL (≈ 81.3 µM); in the assay on GM-resistant S. aureus (read-out: MIC90 Geometric Mean) it was 0.43 µg/mL (≈ 1.09 µM); in the assay on GM-resistant S. aureus (read-out: MIC90 Value), 4 µg/mL (≈ 10.2 µM). Further, the MIC90 in assay [3] (read-out: MIC90 Geometric Mean) came to 32 µg/mL (≈ 81.3 µM); in [3] (read-out: MIC90 Value), 32 µg/mL (≈ 81.3 µM); in the assay with OFLX-resistant S. aureus (read-out: MIC90 Geometric Mean) it was 1.52 µg/mL (≈ 3.86 µM); in the assay on OFLX-resistant S. aureus (read-out: MIC90 Value) it was 4 µg/mL (≈ 10.2 µM); in assay [4] (read-out: MIC90 Geometric Mean) it was 0.14 µg/mL (≈ 0.356 µM); in assay [4] (read-out: MIC90 Value), 0.13 µg/mL (≈ 0.33 µM).
Take `N[C@H]1CCCCN(c2c(F)cc3c(=O)c(C(=O)O)cn(C4CC4)c3c2Cl)C1` [V]: the MIC90 is 0.1 µg/mL (≈ 0.254 µM) in assay [8] (ATCC33591, S. aureus (ATCC 33591)); 0.05 µg/mL (≈ 0.127 µM) in [8] (ATCC33592, S. aureus (ATCC 33592)); 0.05 µg/mL (≈ 0.127 µM) in assay [8] (ATCC33593, S. aureus (ATCC 33593)); 0.1 µg/mL (≈ 0.254 µM) in assay [8] (S. aureus (No. 395)); 0.05 µg/mL (≈ 0.127 µM) in [8] (S. aureus (No. 415)); 0.1 µg/mL (≈ 0.254 µM) in [8] (S. aureus (No. 419)). Moreover, the MIC90 in [8] (S. aureus (No. 420)) turned out to be 0.05 µg/mL (≈ 0.127 µM); in assay [8] (S. aureus (No. 421)), 0.1 µg/mL (≈ 0.254 µM); in assay [9] (ATCC11632, S. aureus (ATCC 11632)) it was 0.05 µg/mL (≈ 0.127 µM); in assay [9] (ATCC13301, S. aureus (ATCC 13301)), 0.05 µg/mL (≈ 0.127 µM).
